Measured values reported in patent US10968183B2, “Small molecule FIEL1 inhibitor in inflammatory and fibrotic lung injury” (UNIVERSITY OF PITTSBURGH—OF THE COMMONWEALTH SYSTEM OF …, priority 2015, dated 2021).
Peptide text beside a SMILES is read from it. * marks the point of attachment. Cbz = O=C(OCc1ccccc1)*

Columns and labels:
PIAS4 = PIAS4 protein half-life study (cycloheximide) in MLE cells; format: cell-based, murine; details: addition of proteasomal or lysosomal inhibitor; FIG. 9B
Excerpt: FIG. 9A. PIAS4 protein half-life study in MLE cells transfected with Empty plasmid or Ubiquitin plasmid. FIG. 9B. PIAS4 protein half-life study with MG132 or Leupeptin. FIG. 9C. Immunoblots showing levels of PIAS4 proteins and V5 after ectopic FIEL1 or UBE3B plasmid expression. FIG. 9D. Immunoblots showing levels of FIEL1 proteins after ectopic FIEL1 plasmid expression in MLE, HeLa, and 293T cells. FIG. 9E. Immunoblots showing levels of PIAS4 proteins and V5 after ectopic FIEL1 plasmid expression in HeLa and 293T cells. FIG. 9F. MLE cells were transfected with an inducible control or FIEL1 plasmid under control of exogenous doxycycline. Cells were treated with doxycycline in a dose dependent manner. Cells were then collected and cell lysates were immunoblotted for FIEL1 and PIAS4. FIG. 9G. MRC5 cells were exposed to TGFβ for 24 h before being assayed for PIAS4 and FIEL1 protein half-lives.
(§1) FIG. 15A. Diagram of the BC-1485 synthesis process. FIGS. 15B-15C. Docking studies of the lead compound, BC-1485, interacting with the FIEL1-HECT domain. FIG. 15D. MRC5 cells were treated with the compound at various doses; cells were also co-treated with TGFβ at 2 ng/ml. 18 h later, cells were collected and assayed for α-SMA expression. FIG. 15E. MRC5 cells were seeded in 35 mm glass bottom dishes before co-treatment with TGFβ at 2 ng/ml and BC-1480 or BC1485 at 5μM. FIG. 15F. PIAS4 protein half-life determination after BC-1480 or BC1485 treatment at 5μM for 18 h. FIG. 15G. PIAS4 and KIAA0317 mRNA analysis after BC1485 treatment for 18 h.
MLE cells were cultured in Dulbecco's Modified Eagle Medium-F12 (Gibco) supplemented with 10% fetal bovine serum (DMEM-10). 293T cells were cultured in Dulbecco's Modified Eagle Medium (Gibco) supplemented with 10% fetal bovine serum (DMEM-10). MRC5 cells were cultured in Eagle's Minimum Essential Medium (Gibco) supplemented with 10% fetal bovine serum (EMEM-10). For protein expression in MLE cells, nucleofection was used following Amaxa's protocol. For protein overexpression in 293T cells, Fugene6HD transfection reagents were used following the manufacturer's protocol. […]

[1] = test system: bleomycin-induced lung injury in C57BL/6J mice; experiment: Bleomycin lung fibrosis model in mice; format: in vivo; details: bleomycin 0.05 U i.t., 7-21 days; estimated 5 mg/kg/d
Procedure: (§2) FIG. 7A. […] FIG. 7B. Structures of the BC-1480 backbone and lead compound BC-1485. FIG. 7C. FIEL1 protein was HIS-purified from FIEL1 expression in 293T cells using cobalt beads. Beads were then extensively washed prior to exposure to BC-1480 or BC-1485 at different concentrations (10^−4 to 100 μM). Purified PIAS4 protein was then incubated with drug-bound FIEL1 beads overnight. Beads were washed, and proteins were eluted and resolved on SDS-PAGE. The relative amounts of PIAS4 detected in the pull-downs was normalized to loading and quantified (n=2). FIG. 7D. MLE cells were exposed to BC-1480 or BC-1485 at various concentrations for 18 h. Cells were then collected and immunoblotted. FIGS. 7E-J. C57BL/6J mice were administered with bleomycin (0.05 U) for 7-21 days. Compounds BC-1480 and BC-1485 were given to mice through drinking water with an estimated dose of 5 mg/kg/d. Mice were euthanized, and lungs were lavaged with saline, harvested, and then homogenized. Lavage proteins, CXCL1, and total cell count were measured in FIGS. 7E-G. H. Survival studies of mice that were given bleomycin and compound treatments. Mice were carefully monitored over time; moribund, preterminal animals were immediately euthanized and recorded as deceased. Kaplan-Meier survival curves were generated using SPSS software (p<0.01 compared to Vehicle). Vehicle: n=24, BC-1480: n=13, BC-1485: n=12. FIG. 7I. Hydroxyproline contents were measured in lungs from 7, 14, and 21d after bleomycin challenge. FIG. 7J. Trichrome staining was performed on lung samples from E. Original magnification, ×10. *p<0.05 compared to Vehicle (t-test). Data are an average of two experiments (FIGS. 7E-J, 4-8 mice/group)
C57BL/6J mice were administered i.t. with bleomycin (0.05 U) for 7-21 days. Compounds BC-1480 and BC-1485 were given to mice through drinking water with an estimated dose of 5 mg/kg/d. Mice were then euthanized, and lungs were lavaged with saline, harvested, and then homogenized. Lavage IL-6 was measured in (FIG. 16A). Lavage cells were also processed for Wright-Giemsa stain; Lavage macrophages, neutrophils and lymphocytes were counted and graphed (FIGS. 16B-16D). H&E staining was performed on lung samples from A. Original magnification, ×10. *p<0.05 compared to Vehicle (t test). Data are an average of two experiments (A-E, 4-8 mice/group).
Murine lungs were dried and weighed prior to digestion with HCl. Hydroxyproline concentrations were measuring using methods previously described in Kesava Reddy et al., Clinical Biochemistry, 29(3): 225-229 (1996), and Neuman et al., J. of Biol. Chem., 184(1): 299-306 (1950). Hydroxyproline content was normalized to dry lung weight.
All procedures were approved by the University of Pittsburgh Institutional Animal Care and Use Committee. For fibrosis studies, male C57BL/6J mice were deeply anesthetized using a ketamine/xylazine mixture, and the larynx was well visualized under a fiber optic light source before endotracheal intubation with a 3/400 24-gauge plastic catheter. 10^7 CFU of lentivirus encoding genes for Empty (E), FIEL1, CON shRNA, or KIAA0317 shRNA was given i.t. for 144 h before administration of bleomycin (0.02 U˜0.05 U i.t.) for up to 21 days. Animals were euthanized and assayed for BAL protein, cell count, cytokines, and lung infiltrates. Survival studies were performed on mice that were given bleomycin (0.02 U˜0.05 U i.t.). Mice were carefully monitored over time; moribund, preterminal animals were immediately euthanized and recorded as deceased. For drug studies, mice were deeply anesthetized as above. Bleomycin (0.05 U i.t.) was given i.t. before BC-1480 or BC-1485 (5 mg/kg/d) was administered to the mice through their drinking water. 7-21d later, animals were euthanized and analyzed as above.

[2] = test system: α-SMA expression in MRC5 cells; experiment: α-SMA expression in MRC5 cells co-treated with TGFβ; format: cell-based, human; details: Homo sapiens; MRC5 cells, TGFβ 2 ng/ml, 18 h; FIG. 15D; read-out: IC50 for decrease of α-SMA expression
Procedure: as §1
MLE cells were cultured in Dulbecco's Modified Eagle Medium-F12 (Gibco) supplemented with 10% fetal bovine serum (DMEM-10). 293T cells were cultured in Dulbecco's Modified Eagle Medium (Gibco) supplemented with 10% fetal bovine serum (DMEM-10). MRC5 cells were cultured in Eagle's Minimum Essential Medium (Gibco) supplemented with 10% fetal bovine serum (EMEM-10). For protein expression in MLE cells, nucleofection was used following Amaxa's protocol. For protein overexpression in 293T cells, Fugene6HD transfection reagents were used following the manufacturer's protocol. For protein expression in MRC5 cells, MRC-5 Cell Avalanche™ Transfection Reagent was used following manufacturer's protocol. Cells were treated with TGFβ at 0-2 ng/ml for 0-18 h. For FIEL1, PKCξ, or GSK3β knockdown studies in cells, scramble shRNA, KIAA0317, PKCξ, or GSK3β shRNA were used to transfect cells for 48 h. For drug treatment, compounds were solubilized in DMSO before being added to the cells for up to 18 h. Cell lysates were prepared by brief sonication in 150 mM NaCl, 50 mM Tris, 1.0 mM EDTA, 2 mM dithiothreitol, 0.025% sodium azide, and 1 mM phenylmethylsulfonyl fluoride (Buffer A) at 4° C. For half-life study, MLE cells were exposed to cycloheximide (40 μg/ml) in a time dependent manner for up to 8 h. Cells were then collected and immunoblotted.

FIEL1/PIAS4 interaction = target: T1, FIEL1/PIAS4 interaction (Homo sapiens, UniProt O15033); experiment: In vitro drug binding assay: PIAS4 pull-down on drug-bound FIEL1 beads; details: FIG. 7
T1 construct: made in house; host or cells: 293T cells (FIEL1)
T1 sequence (O15033 1-789 isoform O15033-2): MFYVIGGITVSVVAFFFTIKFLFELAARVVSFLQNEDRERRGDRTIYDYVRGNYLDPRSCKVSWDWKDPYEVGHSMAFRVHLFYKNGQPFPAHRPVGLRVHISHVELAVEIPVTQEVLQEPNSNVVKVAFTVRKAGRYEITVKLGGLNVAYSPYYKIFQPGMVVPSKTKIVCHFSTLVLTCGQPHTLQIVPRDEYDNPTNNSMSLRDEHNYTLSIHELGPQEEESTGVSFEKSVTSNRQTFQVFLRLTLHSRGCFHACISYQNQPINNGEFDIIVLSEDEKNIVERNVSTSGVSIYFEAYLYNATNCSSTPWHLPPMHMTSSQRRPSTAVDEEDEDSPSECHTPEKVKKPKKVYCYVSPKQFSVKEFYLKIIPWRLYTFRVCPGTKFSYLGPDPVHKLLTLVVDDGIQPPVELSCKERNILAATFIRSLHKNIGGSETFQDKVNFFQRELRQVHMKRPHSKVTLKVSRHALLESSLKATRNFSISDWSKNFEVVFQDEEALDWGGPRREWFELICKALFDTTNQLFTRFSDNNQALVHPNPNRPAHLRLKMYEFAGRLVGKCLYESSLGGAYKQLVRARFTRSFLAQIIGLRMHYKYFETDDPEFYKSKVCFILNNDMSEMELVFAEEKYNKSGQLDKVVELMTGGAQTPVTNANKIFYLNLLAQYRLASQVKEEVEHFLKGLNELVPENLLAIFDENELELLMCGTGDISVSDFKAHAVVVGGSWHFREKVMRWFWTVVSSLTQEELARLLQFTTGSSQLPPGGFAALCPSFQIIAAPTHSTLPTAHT
Procedure: as §2
FIEL1 protein was HIS-purified from FIEL1 expression 293T cells using cobalt beads. Beads were then extensively washed prior to exposure to BC-1480 or BC-1485 at different concentrations (10^−4 to 100 μM). Purified recombinant PIAS4 protein was then incubated with drug-bound FIEL1 beads overnight. […] The relative amounts of PIAS4 detected in the pull-downs were normalized to loading and quantified.

CC(=O)N[C@@H](CC(C)C)C(=O)N[C@@H](CC(C)C)C(=O)N[C@H](C=O)CCCNC(=N)N [Leupeptin]
PIAS4 protein half-life (PIAS4): an effect unobserved

CC(C)C[C@@H](C=O)NC(=O)[C@H](CC(C)C)NC(=O)[C@H](CC(C)C)NC(=O)OCc1ccccc1 [MG132] (Cbz-Leu-Leu-Leu-aldehyde)
PIAS4 protein half-life (PIAS4): significantly increased

O=C(O)c1ccc(NS(=O)(=O)c2ccc3[nH]c(=O)[nH]c3c2)cc1 [BC-1480, 4-(2-oxo-2,3-dihydro-1H-benzo[d]imidazole-5-sulfonamido)benzoic acid]
lung (pulmonary) fibrosis [1]: inhibition of pulmonary fibrosis
IC50 [2]: ~4 µM
inhibition of FIEL1 and PIAS4 interaction (FIEL1/PIAS4 interaction): inhibition of FIEL1 and PIAS4 interaction
